Laboratory results published in patent US20240100065A1, “METHODS FOR TREATING RECEPTOR-INTERACTING PROTEIN KINASE 1-MEDIATED DISEASES” (Genzyme Corporation, priority 2022, published 2024).
Entries after “also recorded” stand apart in the source; their conditions may differ.

Assay: Plasma pharmacokinetics after single and repeated oral doses
Type: in vivo, healthy adult participants (human)
Details: for AUC ratio, point estimate / AUClast ratio, point estimate / Cmax ratio, point estimate: Part 1a fasted
Experimental: In Part 1a, plasma samples were collected before dosing and at 10 post-dose timepoints on Day 1 (30 minutes, 1 hour, followed by every hour until 6 hours, and then every 2 hours until 12 hours), and single samples on Day 2 (at 24 hours) and Day 3 (at 48 hours). In Part 1b, timepoints included at least pre-dose and at 10 post-dose timepoints, including plasma sampling at the same time of CSF sampling. In Part 2, on Day 1 and Day 14, plasma samples were collected at pre-dose and at 10 to 11 post-dose timepoints. In addition, plasma samples were collected on Days 2, 3, 5, 7, 11, 15, 16, and 17.
PK population included all participants exposed to Compound 1 with no major or critical deviations related to Compound 1 and for whom PK data were considered sufficient and interpretable. PK parameters were summarized by descriptive statistics for each dose level group. Distribution of Tmax values was represented by histogram plots for each dose level group. In Part 1a, dose proportionality was assessed using a linear model on Cmax, AUClast and AUC. In Part 2, all PK analyses were performed separately for each regimen (OD and BID). Steady state was assessed on Ctrough using a non-linear model. Accumulation was assessed using a linear model on log-transformed accumulation ratio. Dose proportionality was assessed using a power model on Cmax and AUCtau on Day 1 and Day 14, separately. Variance components of log-transformed Cmax and AUCtau were estimated using a linear model. In Part 1b, CSF concentration was described by dose level group and CSF to plasma unbound concentration ratios calculated were described in the same way. 4β-hydroxycholesterol on Day 14 versus Day 1 pre-dose concentration ratios were summarized using descriptive statistics by dose level group and point estimates with 90% confidence interval (90% CI) for the geometric mean of the log-transformed Day14/Day1 ratio was calculated in Part 2.

[1] = 20 mg vs. 10 mg (dose increase = 2)
[2] = 30 mg vs. 10 mg (dose increase = 3)
[3] = 30 mg vs. 20 mg (dose increase = 1.5)
[4] = 40 mg vs. 10 mg (dose increase = 4)
[5] = 40 mg vs. 20 mg (dose increase = 2)
[6] = 40 mg vs. 30 mg (dose increase = 1.33)

CC(C)(C(=O)N1CCOc2c(C#N)cncc2C1)C(F)F [Compound 1, 4-(3,3-difluoro-2,2-dimethyl-propanoyl)-3,5-dihydro-2H-pyrido[3,4-f] [1,4]oxazepine-9-carbonitrile]
Accumulation ratio (AUC0-24h), Day 14/Day 1 (10 mg QD): 1.31
Accumulation ratio (Cmax), Day 14/Day 1 (10 mg QD): 1.00
Accumulation ratio (AUC0-12h), Day 14/Day 1 (15 mg BID): 1.45
Accumulation ratio (Cmax), Day 14/Day 1 (15 mg BID): 1.24
Accumulation ratio (AUC0-12h), Day 14/Day 1 (20 mg BID): 1.63
Accumulation ratio (Cmax), Day 14/Day 1 (20 mg BID): 1.71
Accumulation ratio (AUC0-24h), Day 14/Day 1 (20 mg QD): 1.13
Accumulation ratio (Cmax), Day 14/Day 1 (20 mg QD): 1.06
Cmax (20 mg QD, MAD study, read-out: Mean observed Cmax at steady state): 860 nM
Within-subject variability for AUCtau (BID cohorts): 11.3%
Within-subject variability for Cmax (BID cohorts): 17.9%
Total variability for AUCtau (BID dosing regimen): 28.4%
Total variability for Cmax (BID dosing regimen): 32.2%
Dose proportionality: AUC0-24h (AUCtau) ratio for dose ratio (r) = 2 (Day 14, 10 and 20 mg QD): 1.51
Dose proportionality: Cmax ratio for dose ratio (r) = 2 (Day 14, 10 and 20 mg QD): 1.58
Dose proportionality: AUC0-12h (AUCtau) ratio for dose ratio (r) = 1.3333 (Day 14, 15 and 20 mg BID): 1.32
Dose proportionality: Cmax ratio for dose ratio (r) = 1.3333 (Day 14, 15 and 20 mg BID): 1.31
AUC ratio, point estimate [1]: 2.07
AUClast ratio, point estimate [1]: 2.11
Cmax ratio, point estimate [1]: 2.08
AUC ratio, point estimate [2]: 2.09
AUClast ratio, point estimate [2]: 2.16
Cmax ratio, point estimate [2]: 3.60
AUC ratio, point estimate [3]: 1.01
AUClast ratio, point estimate [3]: 1.02
Cmax ratio, point estimate [3]: 1.73
AUC ratio, point estimate [4]: 4.43
AUClast ratio, point estimate [4]: 4.56
Cmax ratio, point estimate [4]: 4.79
AUC ratio, point estimate [5]: 2.15
AUClast ratio, point estimate [5]: 2.16
Cmax ratio, point estimate [5]: 2.31
AUC ratio, point estimate [6]: 2.12
AUClast ratio, point estimate [6]: 2.11
Cmax ratio, point estimate [6]: 1.33
AUC, GM (Part 1a single 10 mg fasted): 1170 ng·h/mL
CL/F, GM (Part 1a single 10 mg fasted): 8.56 L/h
CL/F, mean (Part 1a single 10 mg fasted): 9.11 L/h
Cmax, GM (Part 1a single 10 mg fasted): 116 ng/mL
T1/2z, GM (Part 1a single 10 mg fasted): 7.97 h
T1/2z, mean (Part 1a single 10 mg fasted): 8.22 h
Tlast, median (Part 1a single 10 mg fasted): 48.0 h
Tmax, median (Part 1a single 10 mg fasted): 1.02 h
AUC, GM (Part 1a single 20 mg fasted): 2410 ng·h/mL
AUC, mean (Part 1a single 20 mg fasted): 2450 ng·h/mL
AUClast, GM (Part 1a single 20 mg fasted): 2360 ng·h/mL
AUClast, mean (Part 1a single 20 mg fasted): 2400 ng·h/mL
CL/F, GM (Part 1a single 20 mg fasted): 8.28 L/h
CL/F, mean (Part 1a single 20 mg fasted): 8.43 L/h
Cmax, GM (Part 1a single 20 mg fasted): 241 ng/mL
T1/2z, GM (Part 1a single 20 mg fasted): 7.48 h
T1/2z, mean (Part 1a single 20 mg fasted): 7.63 h
Tlast, median (Part 1a single 20 mg fasted): 48.0 h
Tmax, median (Part 1a single 20 mg fasted): 1.50 h
AUC, GM (Part 1a single 30 mg fasted): 2440 ng·h/mL
AUClast, GM (Part 1a single 30 mg fasted): 2420 ng·h/mL
CL/F, GM (Part 1a single 30 mg fasted): 12.3 L/h
CL/F, mean (Part 1a single 30 mg fasted): 13.1 L/h
Cmax, GM (Part 1a single 30 mg fasted): 417 ng/mL
T1/2z, GM (Part 1a single 30 mg fasted): 5.70 h
T1/2z, mean (Part 1a single 30 mg fasted): 5.99 h
Tlast, median (Part 1a single 30 mg fasted): 48.0 h
Tmax, median (Part 1a single 30 mg fasted): 1.00 h
AUC, GM (Part 1a single 40 mg fasted): 5180 ng·h/mL
AUClast, GM (Part 1a single 40 mg fasted): 5120 ng·h/mL
CL/F, GM (Part 1a single 40 mg fasted): 7.72 L/h
CL/F, mean (Part 1a single 40 mg fasted): 8.15 L/h
Cmax, GM (Part 1a single 40 mg fasted): 555 ng/mL
T1/2z, GM (Part 1a single 40 mg fasted): 6.29 h
T1/2z, mean (Part 1a single 40 mg fasted): 6.40 h
Tlast, median (Part 1a single 40 mg fasted): 48.0 h
Tmax, median (Part 1a single 40 mg fasted): 1.50 h
Dose proportionality of exposures (Part 1a, between 10 and 40 mg): no major deviation from dose proportionality; also recorded: increased according to dose proportionality
AUC, GM (Part 1b single 10 mg fed): 1370 ng·h/mL
AUClast, GM (Part 1b single 10 mg fed): 1170 ng·h/mL
CL/F, GM (Part 1b single 10 mg fed): 7.27 L/h
CL/F, mean (Part 1b single 10 mg fed): 7.63 L/h
Cmax, GM (Part 1b single 10 mg fed): 111 ng/mL
Cmax, mean (Part 1b single 10 mg fed): 115 ng/mL
T1/2z, GM (Part 1b single 10 mg fed): 7.97 h
T1/2z, mean (Part 1b single 10 mg fed): 8.09 h
Tlast, median (Part 1b single 10 mg fed): 24.0 h
Tmax, median (Part 1b single 10 mg fed): 4.24 h
AUC, GM (Part 1b single 40 mg fed): 4740 ng·h/mL
AUClast, GM (Part 1b single 40 mg fed): 3960 ng·h/mL
CL/F, GM (Part 1b single 40 mg fed): 8.43 L/h
CL/F, mean (Part 1b single 40 mg fed): 8.92 L/h
Cmax, GM (Part 1b single 40 mg fed): 374 ng/mL
T1/2z, GM (Part 1b single 40 mg fed): 8.03 h
T1/2z, mean (Part 1b single 40 mg fed): 8.31 h
Tlast, median (Part 1b single 40 mg fed): 24.0 h
Tmax, median (Part 1b single 40 mg fed): 4.5 h
Mean T1/2z across doses and regimens (Part 2, Day 14): 7.3 to 9.1 h
Median time to steady state of plasma concentrations (Part 2, after first administration, irrespective of dose or regimen): 1.4 to 2 days
